In patent US6984635B1, “Dimerizing agents, their production and use” (Board of Trustees of The Leland Stanford Jr. University, priority 1998, dated 2006):

Columns and labels:
Format in all cases: cell-based
[1] = molecular target: T1, Gal4-FKBP3 / FRB*-VP16 (FRB harboring T2098L, W2101F, and K2095P) (Homo sapiens, UniProt P42345+P62942, K2095P/T2098L/W2101F); assay: activation of transcription in Jurkat cells transfected with Gal4-FKBP3, FRB*-VP16 and UAS-SEAP; details: for amplitude of reporter gene activity: FRB*-VP16, compared with rapamycin/wild type FRB-VP16 system; for EC50: FRB*-VP16 replaces wild type FRB-VP16, read-out: EC50 of reporter gene activity
T1 construct: FRB*-VP16 (FRB harboring T2098L, W2101F, and K2095P) replaces wild type FRB-VP16; expressed in transfected cells; host or cells: Jurkat cells
T1 sequence (P62942 2-108 limits assumed): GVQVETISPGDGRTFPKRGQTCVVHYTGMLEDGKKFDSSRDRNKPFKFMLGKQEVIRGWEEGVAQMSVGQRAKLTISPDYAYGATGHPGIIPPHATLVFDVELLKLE
T1 sequence (P42345 2012-2144 K2095P/T2098L/W2101F limits assumed): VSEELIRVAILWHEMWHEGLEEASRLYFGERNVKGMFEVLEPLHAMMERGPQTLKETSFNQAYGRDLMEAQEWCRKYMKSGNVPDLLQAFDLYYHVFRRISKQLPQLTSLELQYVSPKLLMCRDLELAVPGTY
Excerpt: (§1) The ability of the rapalogs to multimerize chimeric proteins may be measured in cell-based assays by measuring the occurrence of an event triggered by such multimerization. For instance, one may use cells containing and capable of expressing DNA encoding a first chimeric protein comprising one or more FKBP-domains and one or more effector domains as well as DNA encoding a second chimeric protein containing an FRB domain and one or more effector domains capable, upon multimerization, of actuating a biological response. We prefer to use cells which further contain a reporter gene under the transcriptional control of a regulatory element (i.e., promoter) which is responsive to the multimerization of the chimeric proteins. The design and preparation of illustrative components and their use in so engineered cells is described in WO96/41865 and the other international patent applications referred to in this and the foregoing section. The cells are grown or maintained in culture. A rapalog is added to the culture medium and after a suitable incubation period (to permit gene expression and secretion, e.g. several hours or overnight) the presence of the reporter gene product is measured. Positive results, i.e., multimerization, correlates with transcription of the reporter gene as observed by the appearance of the reporter gene product. The reporter gene product may be a conveniently detectable protein (e.g. by ELISA) or may catalyze the production of a conveniently detectable product (e.g. colored). Materials and methods for producing appropriate cell lines for conducting such assays are disclosed in the international patent applications cited above in this section. Typically used target genes include by way of example SEAP, hGH, beta-galactosidase, Green Fluorescent Protein and luciferase, for which convenient assays are commercially available.
Likewise, C3-allyl rapamycin and C3-methallyl rapamycin were impaired in their ability to activate transcription in Jurkat cells transfected with Gal4-FKBP3, wild type FRB-VP16, and UAS-SEAP. […] C3 derivatives of rapamycin have impaired toxicity (immunosuppressive activity) and can be used efficiently as dimerizers in conjunction with engineered FRB domains. Preparation of 24(S),30(S)-tetrahydro-C3-rapalogs [drawing 30]

[2] = molecular target: T2, Gal4-FKBP3 / wild type FRB-VP16 (Homo sapiens, UniProt P42345+P62942); assay: activation of transcription in Jurkat cells transfected with Gal4-FKBP3, wild type FRB-VP16 and UAS-SEAP
T2 construct: Jurkat cells transfected with Gal4-FKBP3, wild type FRB-VP16, and UAS-SEAP; expressed in transfected cells; host or cells: Jurkat cells
T2 sequence (P62942 2-108 limits assumed): as the sequence (P62942 2-108 limits assumed) above
T2 sequence (P42345 2012-2144 limits assumed): as the sequence (P42345 2012-2144 K2095P/T2098L/W2101F limits assumed) above, with P84K, L87T, F90W counted along it
Excerpt: as §1, with “The reporter gene product may be a conveniently detectable protein (e.g. by ELISA) or may catalyze the production of a conveniently detectable product (e.g. colored). Materials and methods for producing appropriate cell lines for conducting such assays are disclosed in the international patent applications cited above in this section. Typically used target genes include by way of example SEAP, hGH, beta-galactosidase, Green Fluorescent Protein and luciferase, for which convenient assays are commercially available.” left out

[3] = test system: CTLL-2 cells; assay: inhibition of proliferation of CTLL-2 cells (toxicity)
Procedure: The toxicity of the lead compounds was tested by their ability to inhibit the proliferation of CTLL-2 cells, which are IL-2 dependent and highly sensitive to rapamycin (IC50<1 nM).

Row | EC50 [1] | ability to activate transcription (SEAP reporter) [2] | Compound | amplitude of reporter gene activity [1] | IC50 ([3]; IL-2 dependent CTLL-2 cells) | effect on proliferation of CTLL-2 cells ([3]; incubation with 1 μM compound)
1 | ~10 nM | impaired | C=CCC1C=CC(C)=CCC2CCC(C)C(O)(O2)C(=O)C(=O)N2CCCCC2C(=O)OC(C(C)CC2CCC(O)C(OC)C2)CC(=O)C(C)C=C(C)C(O)C(OC)C(=O)C(C)CC(C)C=C1 (centres unmarked) [C3-allyl rapamycin, 3-allyl-rapamycin] | higher than that elicited by the rapamycin/wild type FRB-VP16 system | – | –
2 | – | – | Rapamycin [reference compound] | – | < 1 nM | –
3 | ~10 nM | impaired | C=C(C)CC1C=CC(C)=CCC2CCC(C)C(O)(O2)C(=O)C(=O)N2CCCCC2C(=O)OC(C(C)CC2CCC(O)C(OC)C2)CC(=O)C(C)C=C(C)C(O)C(OC)C(=O)C(C)CC(C)C=C1 (centres unmarked) [C3-methallyl rapamycin, 3-methallyl-rapamycin] | higher than that elicited by the rapamycin/wild type FRB-VP16 system | – | no detectable effect
